What was measured:
[1] = DMPC phosphate group; cited from earlier work
[2] = Dissolution of DMPC in HCl aqueous solution and nanoparticle formation by stirring; assay type: physicochemical
Source text: The present invention is partly based on the discovery that phosphatidylcholine nanoparticles can be formed in an aqueous solution free of an organic solvent by high energy treating the mixture of water insoluble phosphatidylcholine and an aqueous solution having a pH from 1 to 4. The present invention is also partly based on the discovery that at pH lower than pKa, the negative charge of phosphate group in phosphatidylcholine is neutralized through the protonation, which break static stacking in phosphatidylcholine crystal and improve solubility of phosphatidylcholine in an aqueous solution (scheme 1). For example, according to the experimental results of the present application, DMPC is dissolved (pKa 1.86) into 137 mM of HCl aqueous solution up to 10 mg/mL and induced aggregate and formed nanoparticles (˜30 nm) by stirring at room temperature for about 10 hours. After neutralized by NaOH, the nanoparticles were diluted to certain concentration in packing saline.
Method: DMPC was added into 135 mM of HCl and stirred overnight at room temperature to form nanoparticles (4-440 mg/mL). Then, pH was adjusted to 6-8 by 50% NaOH. The solution was diluted by PBS or Saline 14 to get certain concentration (0.1-2 mg/mL).

SMILES: CCCCCCCCCCCCCC(=O)OC[C@H](COP(=O)([O-])OCC[N+](C)(C)C)OC(=O)CCCCCCCCCCCCC [DMPC, Dimyristoylphosphatidylcholine]
- pKa [1]: 1.86
- solubility ([2]; 137 mM HCl aqueous solution, read-out: DMPC dissolved into HCl aqueous solution (solubility)): ≤ 10000 µg/mL
- Nanoparticle size ([2]; formed by stirring at room temperature for about 10 hours in 137 mM HCl): ~30 nm
